# Measured values as given in patent US8212038B2, “Methods and compositions for controlling ectoparasites” (HatchTech Pty Ltd., priority 2003, dated 2012).
# Key:
# lice eggs = assay: Time course in vitro lice egg hatching assay; type: in vivo, Pediculus humanus humanus; conditions: for inhibition of lice egg hatching (in words): in vivo; for effect on egg hatching (in words): results not shown
# [1] = test system: Plutella xylostella eggs (Waite strain); assay: Egg hatch of Plutella xylostella after dipping in inhibitor
# Protocol: The egg masses were then placed in a humid box at 25 degrees until egg hatch. Control eggs were exposed to absolute methanol as described above. At day 6 post laying the eggs were assessed from the different treatments and the percentage of egg hatch determined relative to the control as shown in Table 9.
# Batches of Plutella eggs that were laid on either fine cloth or parafilm were dipped in a specific inhibitor solution for between 2-10 seconds, the excess solution was drained by blotting with dry tissue paper. The egg masses were then placed in a humid box at 25 degrees until egg hatch. Control eggs were exposed to absolute methanol as described above or not treated.
# The egg masses were then placed in a humid box at 25 degrees until egg hatch. Control eggs were exposed to absolute ethanol as described above. On day 6 post laying the eggs were assessed from the different treatments and the percentage of egg hatch determined relative to the control.
# [2] = test system: Helicoverpa armigera eggs (Tatura×Toowoomba strains); assay: Egg hatch of Helicoverpa armigera after exposure to inhibitor; conditions: for % Inhibition of egg hatch relative to the control / Number hatched / Number unhatched / % Inhibition of egg hatch relative to control: day 6 post laying
# Protocol: Several hundred Helicoverpa armigera eggs (Tatura×Toowoomba strains) were collected, that had been laid on fine mesh cloth over a 24 hour period.
# Batches of Helicoverpa eggs were exposed to a specific inhibitor solution for between 2-10 seconds the excess solution drained by blotting with dry tissue paper. The egg masses were then placed in a humid box at 25 degrees until egg hatch. Control eggs were exposed to absolute methanol as described above.
# [3] = test system: Plutella xylostella eggs (Waite strain); assay: Reversal of ovicidal effect by FeSO4 on Plutella xylostella eggs; type: in vivo; conditions: for effect of added Fe (FeSO4) on the ovicidal effect (in words): 10 mM inhibitor, then FeSO4 10, 5 or 1 mM
# Protocol: (§1) Within 24 hours of collection the following experimental design was chosen. Batches of eggs were exposed to 10 mM 6,69-dimethyl-2,29-dipyridyl for 2 seconds while additional batches of eggs were exposed to the solvent only (Methanol) for 2 seconds. All batches of eggs were allowed to air dry for 20 minutes at room temperature. The eggs were then given a 2 second exposure to FeSO4 at either 10, 5 or 1 mM, air dried and put in the incubator at 24° C. and allowed to hatch over the next 6 days. In addition, a positive control of 10 mM 6,69-dimethyl-2,29-dipyridyl was set up in which eggs were exposed to this compound for 2 seconds, air dried and placed in the incubator.
# as §1, with “10 mM 5,59-dimethyl-2,29-dipyridyl for 2” for “10 mM 6,69-dimethyl-2,29-dipyridyl for 2”, “FeSO4 at 10, 5” for “FeSO4 at either 10, 5”, “put in an incubator at” for “put in the incubator at”, “of 10 mM, 5,59-dimethyl-2,29-dipyridyl was set” for “of 10 mM 6,69-dimethyl-2,29-dipyridyl was set”
# B. ovis eggs = assay: Egg hatching in Bovicola ovis; type: in vivo; conditions: 10 mM; for inhibition of egg hatching (in words): 10 or 1 minute exposure
# Protocol: B. ovis eggs were collected from the wool of sheep that were infested with this parasite. The eggs were collected using forceps and with the aid of a dissecting microscope and placed in 24 well tissue culture plates in duplicate lots of 10 eggs per replicate. The eggs were then exposed to either methanol alone (control) or the test compounds for either 10 minutes or 1 minute before being removed from the wells and placed into individual glass vials containing a diet at the base of the tube. The tubes were placed in plastic containers containing a salt solution (to keep humidity constant at 68%) and the containers maintained at a temperature 32° C. The eggs were monitored for hatching over the following 12 days and % hatch inhibition determined in comparison to the controls.
# [4] = per replicate, […], concentration not given
# [5] = Example 13, eggs laid on cloth, 1 mM
# [6] = Example 13, eggs laid on cloth, 10 mM
# [7] = Example 13, eggs laid on parafilm, 1 mM
# [8] = Example 13, eggs laid on parafilm, 10 mM
# [9] = 10 mM followed by 2 second exposure to 1 mM FeSO4
# [10] = 10 mM followed by 2 second exposure to 5 mM FeSO4
# [11] = 10 mM followed by 2 second exposure to 10 mM FeSO4
# [12] = 10 mM followed by 2 second exposure to MEOH
# [13] = 10 mM, 2 seconds, (+ve) control, no second exposure
# [14] = 10 and 1 mM, listed as 6,6′ dimethyl-2,2′ dipyridyl
# [15] = Example 12, 0.001 mM, day 6 post laying
# [16] = Example 12, 0.01 mM, day 6 post laying
# [17] = Example 12, 0.1 mM, day 6 post laying
# [18] = Example 12, 1 mM, day 6 post laying
# [19] = Example 12, 10 mM, day 6 post laying
# [20] = Example 13, eggs laid on cloth, 0.01 mM
# [21] = Example 13, eggs laid on cloth, 0.1 mM
# [22] = Example 13, eggs laid on parafilm, 0.01 mM
# [23] = Example 13, eggs laid on parafilm, 0.1 mM
compound,measurement,setting,value
"c1ccc(-c2ccccn2)nc1 [2,29-dipyridyl]",inhibition of lice egg hatching (in words),lice eggs,completely inhibited
same,Ph (number of eggs partly hatched),lice eggs; [4],0
c1ccc(-c2ccc3ccccc3n2)nc1 [2-(2-pyridinyl)quinoline],inhibition of egg hatching in Plutella xylostella (in words),[1]; 10 mM,able to inhibit egg hatching
"Cc1ccnc(-c2cc(C)ccn2)c1 [4,4′-dimethyl-2,2′-dipyridyl]",inhibition of egg hatching of Helicoverpa armigera (in words),[2]; 1 mM,significant inhibition of egg hatching
same,inhibition of egg hatching of Helicoverpa armigera (in words),[2]; 10 mM,significant inhibition of egg hatching
same,% Inhibition of egg hatch relative to the control,"[2]; Example 15, 1 mM",66%
same,Number hatched,"[2]; Example 15, 1 mM",23
same,Number unhatched,"[2]; Example 15, 1 mM",29
same,% Inhibition of egg hatch relative to the control,"[2]; Example 15, 10 mM",84%
same,Number hatched,"[2]; Example 15, 10 mM",8
same,Number unhatched,"[2]; Example 15, 10 mM",43
same,inhibition of egg hatching in Plutella xylostella (in words),[1]; 10 and 1 mM,significantly inhibit egg hatching
same,% Inhibition of egg hatch relative to controls,[1]; [5],100%
same,Number hatched,[1]; [5],0
same,Number unhatched,[1]; [5],30
same,% Inhibition of egg hatch relative to controls,[1]; [6],100%
same,Number hatched,[1]; [6],0
same,Number unhatched,[1]; [6],36
same,% Inhibition of egg hatch relative to controls,[1]; [7],91%
same,Number hatched,[1]; [7],10
same,% Inhibition of egg hatch relative to controls,[1]; [8],100%
same,Number hatched,[1]; [8],0
"Cc1ccc(-c2ccc(C)cn2)nc1 [5,5′-dimethyl-2,2′-dipyridyl]",% Inhibition,[3]; [9],0%
same,Number hatched,[3]; [9],39
same,Number unhatched,[3]; [9],0
same,% Inhibition,[3]; [10],0%
same,Number hatched,[3]; [10],25
same,Number unhatched,[3]; [10],0
same,% Inhibition,[3]; [11],8%
same,Number hatched,[3]; [11],23
same,Number unhatched,[3]; [11],2
same,% Inhibition,[3]; [12],55%
same,Number hatched,[3]; [12],16
same,Number unhatched,[3]; [12],19
same,effect of added Fe (FeSO4) on the ovicidal effect (in words),[3],able to reverse the effects
same,% Inhibition,[3]; [13],100%
same,Number hatched,[3]; [13],0
same,Number unhatched,[3]; [13],38
same,inhibition of egg hatching (in words),B. ovis eggs,completely inhibited
same,% Inhibition,B. ovis eggs; 1 minute exposure,100%
same,% Inhibition,B. ovis eggs; 10 minute exposure,100%
same,inhibition of egg hatching of Helicoverpa armigera (in words),[2]; 10 mM,significant inhibition of egg hatching
same,% Inhibition of egg hatch relative to the control,"[2]; Example 15, 10 mM",100%
same,Number hatched,"[2]; Example 15, 10 mM",0
same,Number unhatched,"[2]; Example 15, 10 mM",42
same,inhibition of egg hatching in Plutella xylostella (in words),[1]; 10 and 1 mM,significantly inhibit egg hatching
same,% Inhibition of egg hatch relative to controls,[1]; [5],78%
same,Number hatched,[1]; [5],5
same,Number unhatched,[1]; [5],22
same,% Inhibition of egg hatch relative to controls,[1]; [6],100%
same,Number hatched,[1]; [6],0
same,Number unhatched,[1]; [6],21
same,% Inhibition of egg hatch relative to controls,[1]; [7],88%
same,Number hatched,[1]; [7],18
same,% Inhibition of egg hatch relative to controls,[1]; [8],100%
same,Number hatched,[1]; [8],0
"Cc1cccc(-c2cccc(C)n2)n1 [6,6′-dimethyl-2,2′-dipyridyl]",% Inhibition,[3]; [9],3%
same,Number hatched,[3]; [9],33
same,Number unhatched,[3]; [9],1
same,% Inhibition,[3]; [10],0%
same,Number hatched,[3]; [10],25
same,Number unhatched,[3]; [10],0
same,% Inhibition,[3]; [11],38%
same,Number hatched,[3]; [11],12
same,Number unhatched,[3]; [11],19
same,% Inhibition,[3]; [12],90%
same,Number hatched,[3]; [12],3
same,Number unhatched,[3]; [12],28
same,effect of added Fe (FeSO4) on the ovicidal effect (in words),[3],able to reverse the effects
same,% Inhibition,[3]; [13],100%
same,Number hatched,[3]; [13],0
same,Number unhatched,[3]; [13],44
same,inhibition of egg hatching (in words),B. ovis eggs,completely inhibited
same,% Inhibition,B. ovis eggs; 1 minute exposure,100%
same,% Inhibition,B. ovis eggs; 10 minute exposure,100%
same,inhibition of egg hatching of Helicoverpa armigera (in words),[2]; 0.1 mM,no inhibition of egg hatching
same,inhibition of egg hatching of Helicoverpa armigera (in words),[2]; 10 and 1 mM,significantly inhibit the egg hatching
same,inhibition of egg hatching of Helicoverpa armigera (in words),[2]; [14],significantly inhibit egg hatching
same,% Inhibition of egg hatch relative to control,"[2]; Example 14, 0.001 mM",0%
same,% Inhibition of egg hatch relative to control,"[2]; Example 14, 0.01 mM",0%
same,% Inhibition of egg hatch relative to control,"[2]; Example 14, 0.1 mM",0%
same,% Inhibition of egg hatch relative to control,"[2]; Example 14, 1 mM",97%
same,Number hatched,"[2]; Example 14, 1 mM",4
same,Number unhatched,"[2]; Example 14, 1 mM",140
same,% Inhibition of egg hatch relative to control,"[2]; Example 14, 10 mM",94%
same,Number hatched,"[2]; Example 14, 10 mM",7
same,Number unhatched,"[2]; Example 14, 10 mM",98
same,% Inhibition of egg hatch relative to the control,"[2]; Example 15, 0.1 mM",0%
same,Number hatched,"[2]; Example 15, 0.1 mM",70
same,Number unhatched,"[2]; Example 15, 0.1 mM",0
same,% Inhibition of egg hatch relative to the control,"[2]; Example 15, 1 mM",97%
same,Number hatched,"[2]; Example 15, 1 mM",2
same,Number unhatched,"[2]; Example 15, 1 mM",61
same,% Inhibition of egg hatch relative to the control,"[2]; Example 15, 10 mM",94%
same,Number hatched,"[2]; Example 15, 10 mM",3
same,Number unhatched,"[2]; Example 15, 10 mM",48
same,inhibition of egg hatching of Helicoverpa armigera (in words),[2]; concentrations below 1 mM,No inhibition
same,inhibition of egg hatching in Plutella xylostella (in words),[1]; 0.1 and 0.01 mM,no observable effects on egg hatching
same,inhibition of egg hatching in Plutella xylostella (in words),[1]; [14],strong ovicidal effects
same,inhibition of egg hatching in Plutella xylostella (in words),"[1]; 10 and 1 mM, listed as 6,6′-dimethyl-2,2′ dipyridyl",effective at inhibiting egg hatching
same,% Inhibition of egg hatch relative to control,[1]; [15],0%
same,Number hatched,[1]; [15],11
same,Number unhatched,[1]; [15],6
same,% Inhibition of egg hatch relative to control,[1]; [16],0%
same,Number hatched,[1]; [16],13
same,Number unhatched,[1]; [16],7
same,% Inhibition of egg hatch relative to control,[1]; [17],0%
same,Number hatched,[1]; [17],23
same,Number unhatched,[1]; [17],29
same,% Inhibition of egg hatch relative to control,[1]; [18],100%
same,Number hatched,[1]; [18],0
same,Number unhatched,[1]; [18],26
same,% Inhibition of egg hatch relative to control,[1]; [19],100%
same,Number hatched,[1]; [19],0
same,Number unhatched,[1]; [19],79
same,% Inhibition of egg hatch relative to controls,[1]; [20],12%
same,Number hatched,[1]; [20],23
same,Number unhatched,[1]; [20],4
same,% Inhibition of egg hatch relative to controls,[1]; [21],0%
same,Number hatched,[1]; [21],49
same,Number unhatched,[1]; [21],49
same,% Inhibition of egg hatch relative to controls,[1]; [5],100%
same,Number hatched,[1]; [5],0
same,Number unhatched,[1]; [5],23
same,% Inhibition of egg hatch relative to controls,[1]; [6],100%
same,Number hatched,[1]; [6],0
same,Number unhatched,[1]; [6],53
same,% Inhibition of egg hatch relative to controls,[1]; [22],0%
same,Number hatched,[1]; [22],92
same,Number unhatched,[1]; [22],4
same,% Inhibition of egg hatch relative to controls,[1]; [23],7%
same,Number hatched,[1]; [23],65
same,Number unhatched,[1]; [23],70
same,% Inhibition of egg hatch relative to controls,[1]; [7],100%
same,Number hatched,[1]; [7],0
same,Number unhatched,[1]; [7],63
same,% Inhibition of egg hatch relative to controls,[1]; [8],100%
same,Number hatched,[1]; [8],0
same,inhibition of lice egg hatching (in words),lice eggs,completely inhibited
same,H (number of eggs successfully hatched),lice eggs; [4],0
same,Ph (number of eggs partly hatched),lice eggs; [4],0
"O=C(O)CN(CCN(CC(=O)O)CC(=O)O)CC(=O)O [EDTA, reference compound]",effect on egg hatching (in words),lice eggs; 100 mM,did not appear to have an effect on egg hatching
"O=C(O)CN(CCOCCOCCN(CC(=O)O)CC(=O)O)CC(=O)O [EGTA, reference compound]",effect on egg hatching (in words),lice eggs; 10 mM,did not appear to have an effect on egg hatching
"CC(C)C[C@H](CC(=O)O)C(=O)N[C@@H](Cc1c[nH]c2ccccc12)C(=O)N[C@@H](C)c1ccccc1 [GM 1489, reference compound]",% Inhibition of lice egg hatching (maximum over the time-course),lice eggs; concentration not given,0%
